# PubChem BioAssay AID328 (DTP/NCI, 2004)
# “And” between values parts separate entries of the source, which are not always exact repeats. Equal values may be shown once. Toxic doses and inconclusive results are not listed.
# System: BDF1 mice, P388 leukemia ip, median survival T/C
# Test: NCI In Vivo Anticancer Drug Screen. Data for tumor model P388 Leukemia (intraperitoneal) in B6D2F1 (BDF1) mice
# Conditions: endpoint: median survival time, higher = longer survival
# In short: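 Survival ratio, drug arm over vehicle arm, in mice with a transplanted tumour.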
# [1] = dose: 12.5 mg/kg/injection, schedule: Q01DX009 (ip), vehicle: saline with Tween-80
# [2] = dose: 25.0 mg/kg/injection, schedule: Q01DX009 (ip), vehicle: saline with Tween-80
# [3] = dose: 50.0 mg/kg/injection, schedule: Q01DX009 (ip), vehicle: saline with Tween-80
# [4] = dose: 100.0 mg/kg/injection, schedule: Q04DX003 (ip), vehicle: saline with Tween-80
# [5] = dose: 100.0 mg/kg/injection, schedule: Q01DX009 (ip), vehicle: saline with Tween-80
compound,measurement,setting,value
CCn1cnc(-c2ccccc2)c1-c1ccccc1,T/C,[1],100 % of control
same,T/C,[2],104 % of control
same,T/C,[3],100 % of control
CN(C)C(=S)N(C)C,T/C,"dose: 100.0 mg/kg/injection, schedule: Q04DX003 (ip), vehicle: saline",100 % of control
same,T/C,"dose: 200.0 mg/kg/injection, schedule: Q04DX003 (ip), vehicle: saline",100 % of control
same,T/C,"dose: 400.0 mg/kg/injection, schedule: Q04DX003 (ip), vehicle: saline",118 % of control
CCN(CC)c1c(C)nnc2c3c(-c4ccccc4)c(-c4ccccc4)nnc3nn12,T/C,"dose: 50.0 mg/kg/injection, schedule: Q04DX003 (ip), vehicle: saline with Tween-80",91 % of control and 97 % of control (2×)
same,T/C,[4],88 % of control and 91 % of control and 97 % of control
same,T/C,"dose: 200.0 mg/kg/injection, schedule: Q04DX003 (ip), vehicle: saline with Tween-80",97 % of control and 108 % of control and 123 % of control
same,T/C,"dose: 400.0 mg/kg/injection, schedule: Q04DX003 (ip), vehicle: saline with Tween-80",92 % of control and 113 % of control
CCOC(=O)C(NC(=O)C(Cc1ccc(N(CCCl)CCCl)cc1)NC(C)=O)C(C)C (stereo unspecified),T/C,"dose: 5.0 mg/kg/injection, schedule: Q04DX003 (ip), vehicle: other",118 % of control
same,T/C,"dose: 10.0 mg/kg/injection, schedule: Q04DX003 (ip), vehicle: other",118 % of control
same,T/C,"dose: 40.0 mg/kg/injection, schedule: Q04DX003 (ip), vehicle: other",151 % of control
same,T/C,"dose: 66.0 mg/kg/injection, schedule: Q04DX003 (ip), vehicle: saline with Tween-80",168 % of control
same,T/C,[4],186 % of control
same,T/C,"dose: 150.0 mg/kg/injection, schedule: Q04DX003 (ip), vehicle: saline with Tween-80",245 % of control
Cc1ccccc1OS(=O)(=O)c1ccccc1[N+](=O)[O-],T/C,"dose: 100.0 mg/kg/injection, schedule: Q01DX001 (ip), vehicle: saline sonified",100 % of control
same,T/C,"dose: 200.0 mg/kg/injection, schedule: Q01DX001 (ip), vehicle: saline sonified",110 % of control
same,T/C,"dose: 400.0 mg/kg/injection, schedule: Q01DX001 (ip), vehicle: saline sonified",105 % of control
CC12CCC(c3sc(N)c(C#N)c31)C2(C)C (stereo unspecified),T/C,"dose: 1.56 mg/kg/injection, schedule: Q01DX009 (ip), vehicle: saline with Tween-80",88 % of control
same,T/C,"dose: 3.13 mg/kg/injection, schedule: Q01DX009 (ip), vehicle: saline with Tween-80",102 % of control
same,T/C,"dose: 6.25 mg/kg/injection, schedule: Q01DX009 (ip), vehicle: saline with Tween-80",104 % of control
same,T/C,[1],104 % of control and 121 % of control
same,T/C,[2],104 % of control
same,T/C,[3],118 % of control
O=c1ccc2cc(OC3OC(CO)C(O)C(O)C3O)c(O)cc2o1 (stereo unspecified),T/C,"dose: 100.0 mg/kg/injection, schedule: Q01DX009 (ip), vehicle: saline",95 % of control
same,T/C,"dose: 100.0 mg/kg/injection, schedule: Q04DX003 (ip), vehicle: alcohol",105 % of control
same,T/C,"dose: 200.0 mg/kg/injection, schedule: Q01DX009 (ip), vehicle: saline",104 % of control
same,T/C,"dose: 200.0 mg/kg/injection, schedule: Q04DX003 (ip), vehicle: alcohol",100 % of control
same,T/C,"dose: 400.0 mg/kg/injection, schedule: Q01DX009 (ip), vehicle: saline",109 % of control
same,T/C,"dose: 400.0 mg/kg/injection, schedule: Q04DX003 (ip), vehicle: alcohol",110 % of control
O=C(O)/C(=C/c1ccc(Cl)cc1)c1ccccc1,T/C,[5],91 % of control
same,T/C,"dose: 200.0 mg/kg/injection, schedule: Q01DX009 (ip), vehicle: saline with Tween-80",94 % of control
OCc1ccccc1[S+]1OCc2ccccc21 (stereo unspecified),T/C,"dose: 50.0 mg/kg/injection, schedule: Q01DX009 (ip), vehicle: other",104 % of control
same,T/C,"dose: 100.0 mg/kg/injection, schedule: Q01DX009 (ip), vehicle: other",97 % of control
same,T/C,"dose: 200.0 mg/kg/injection, schedule: Q01DX009 (ip), vehicle: other",108 % of control
CCCCCCCCSC(=S)SCC(=O)O,T/C,[3],100 % of control
same,T/C,[5],100 % of control
Oc1c(-c2ccccc2)cc(-[n+]2c(-c3ccccc3)cc(-c3ccccc3)cc2-c2ccccc2)cc1-c1ccccc1,T/C,"dose: 0.38 mg/kg/injection, schedule: Q01DX009 (ip), vehicle: saline with Tween-80",100 % of control
same,T/C,"dose: 0.75 mg/kg/injection, schedule: Q01DX009 (ip), vehicle: saline with Tween-80",108 % of control
same,T/C,"dose: 1.5 mg/kg/injection, schedule: Q01DX009 (ip), vehicle: saline with Tween-80",108 % of control
COc1cc(C(=O)CCC(=O)O)cc(OC)c1OC,T/C,"dose: 100.0 mg/kg/injection, schedule: Q01DX009 (ip), vehicle: Klucel (hydroxypropylcellulose) (HPC)",100 % of control
same,T/C,"dose: 200.0 mg/kg/injection, schedule: Q01DX009 (ip), vehicle: Klucel (hydroxypropylcellulose) (HPC)",100 % of control
same,T/C,"dose: 200.0 mg/kg/injection, schedule: Q04DX003 (ip), vehicle: Klucel (hydroxypropylcellulose) (HPC)",105 % of control
same,T/C,"dose: 400.0 mg/kg/injection, schedule: Q01DX009 (ip), vehicle: Klucel (hydroxypropylcellulose) (HPC)",95 % of control
same,T/C,"dose: 400.0 mg/kg/injection, schedule: Q04DX003 (ip), vehicle: Klucel (hydroxypropylcellulose) (HPC)",115 % of control
